In PubChem BioAssay AID743090 (Broad Institute, 2013):
Calls of active or inactive are those of the source.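 The calls were made as follows: active = IC50 below 10 µM in A549 cells, with the call taken as the median across tests; inactive = IC50 above 10 µM in A549 cells.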

Each molecule was assayed on A549 viability, CellTiter-Glo luminescence, 48 h (assay: cytotoxicity in TP53 wild-type A549 cells – cell-based, CellTiter-Glo luminescence, dry powder, selectivity assay for TP53-mutant selective toxicity project, dose response (AID 743090)).

**Q.** For `CCN(CC)c1ccc(C2=NNC(=O)C2(C)C)cc1`, which IC50 is on record?
**A.** Its IC50 is > 10 µM (inactive).

**Q.** How did the IC50 turn out when `CC1CC(=O)NN=C1c1ccc(N2CCN(C(=O)Cc3ccc(Cl)cc3Cl)CC2)cc1` (stereo not drawn) was run?
**A.** The IC50 was > 10 µM (inactive).

**Q.** `C[C@@H]1CC(=O)NN=C1c1ccc(F)c(F)c1` was tested. Which IC50 did it give?
**A.** The IC50 was > 10 µM (inactive).

**Q.** Which IC50 does the source give for `CC(=O)Nc1ccc(C2=NNC(=O)C[C@H]2C)cc1N` here?
**A.** Its IC50 is > 10 µM (inactive).

**Q.** How did the IC50 turn out when `C[C@@H]1CC(=O)NN=C1c1ccc(N)c(Br)c1` was run?
**A.** Its IC50 is > 10 µM (inactive).

**Q.** Which IC50 does the source give for `C[C@@H]1CC(=O)NN=C1c1ccc(F)cc1` (racemic) here?
**A.** The IC50 was > 10 µM (inactive).

**Q.** Which IC50 does the source give for `C/C=C/c1ccc(C2=NNC(=O)C[C@H]2C)cc1` here?
**A.** Its IC50 is > 10 µM (inactive).

**Q.** For `C[C@@H]1CC(=O)NN=C1c1ccc(N2CCOCC2)cc1` (racemic), which IC50 is on record?
**A.** The IC50 was > 10 µM (inactive).

**Q.** How did the IC50 turn out when `CCN(CC)c1ccc(C2=NNC(=O)CC2C)cc1NCCOCCOCCNC(=O)OC(C)(C)C` (stereo not drawn) was run?
**A.** The IC50 was > 10 µM (inactive).

**Q.** `CC1CC(=O)NN=C1c1ccc(F)c(F)c1` (stereo not drawn) was tested. Which IC50 did it give?
**A.** The IC50 was > 10 µM (inactive).

**Q.** For `C[C@H]1CC(=O)NN=C1c1ccc(F)c(F)c1`, which IC50 is on record?
**A.** Its IC50 is > 10 µM (inactive).

**Q.** For `CC(=O)N1CCN(c2ccc(C3=NNC(=O)CC3C)cc2F)CC1` (stereo not drawn), which IC50 is on record?
**A.** Its IC50 is > 10 µM (inactive).

**Q.** How did the IC50 turn out when `CC(=O)Nc1ccc(C2=NNC(=O)C[C@H]2C)cc1Br` was run?
**A.** Its IC50 is > 10 µM (inactive).

**Q.** With `CC1(C)C(=O)NN=C1c1ccc([N+](=O)[O-])cc1` as the molecule, how does the IC50 read?
**A.** Its IC50 is > 10 µM (inactive).

**Q.** With `C[C@@H]1CC(=O)NN=C1c1ccc(N2CCCC2=O)cc1` as the molecule, how does the IC50 read?
**A.** The IC50 was > 10 µM (inactive).

**Q.** Which IC50 does the source give for `CCCc1ccc(C2=NNC(=O)C[C@H]2C)cc1` here?
**A.** Its IC50 is > 10 µM (inactive).

**Q.** `CCN(CC)c1ccc(-c2n[nH]c(=O)cc2C)cc1` was tested. Which IC50 did it give?
**A.** The IC50 was > 10 µM (inactive).

**Q.** How did the IC50 turn out when `Cc1cc(=O)[nH]nc1-c1ccc(N)cc1` was run?
**A.** Its IC50 is > 10 µM (inactive).

**Q.** With `CCN1N=C(c2ccc(N(CC)CC)cc2)[C@H](C)CC1=O` as the molecule, how does the IC50 read?
**A.** Its IC50 is > 10 µM (inactive).

**Q.** For `CC1CC(=O)NN=C1c1cccs1` (stereo not drawn), which IC50 is on record?
**A.** The IC50 was > 10 µM (inactive).

**Q.** With `C[C@@H]1CC(=O)NN=C1c1ccc(-n2cnnc2)cc1` as the molecule, how does the IC50 read?
**A.** Its IC50 is > 10 µM (inactive).

**Q.** How did the IC50 turn out when `C[C@H]1CC(=O)NN=C1c1ccc(N2CCOCC2)c(F)c1` was run?
**A.** Its IC50 is > 10 µM (inactive).

**Q.** Which IC50 does the source give for `C[C@@H]1CC(=O)NN=C1c1ccc(-c2cncnc2)cc1` here?
**A.** The IC50 was > 10 µM (inactive).

**Q.** Which IC50 does the source give for `C[C@@H]1CC(=O)NN=C1c1ccc(N2CCCCC2)cc1` here?
**A.** Its IC50 is > 10 µM (inactive).

**Q.** How did the IC50 turn out when `C[C@@H]1CC(=O)NN=C1c1ccc(N2CCCCS2(=O)=O)cc1` was run?
**A.** Its IC50 is > 10 µM (inactive).

**Q.** `CCNc1ccc(C2=NNC(=O)C[C@H]2C)cc1` was tested. Which IC50 did it give?
**A.** The IC50 was > 10 µM (inactive).

**Q.** With `CCNc1ccc(C2=NNC(=O)C[C@H]2C)cc1[N+](=O)[O-]` as the molecule, how does the IC50 read?
**A.** The IC50 was > 10 µM (inactive).

**Q.** `CC1CC(=O)N(c2ccccc2)N=C1c1ccc(Cl)cc1` (stereo not drawn) was tested. Which IC50 did it give?
**A.** The IC50 was > 10 µM (inactive).

**Q.** With `C[C@@H]1CC(=O)NN=C1c1ccc(Cl)cc1` as the molecule, how does the IC50 read?
**A.** Its IC50 is > 10 µM (inactive).

**Q.** For `CCN(CC)c1ccc(C2=NNC(=O)CC2C)cc1NC(C)=O` (stereo not drawn), which IC50 is on record?
**A.** The IC50 was > 10 µM (inactive).

**Q.** Which IC50 does the source give for `CC(=O)Nc1ccc(C2=NNC(=O)C[C@H]2C)cc1C(C)=O` here?
**A.** The IC50 was > 10 µM (inactive).

**Q.** With `CCN(CC)c1ccc(C(=O)Nc2ccccc2)cc1[N+](=O)[O-]` as the molecule, how does the IC50 read?
**A.** Its IC50 is > 10 µM (inactive).

**Q.** For `Cc1nc2ccc(C3=NNC(=O)C[C@H]3C)cc2[nH]1`, which IC50 is on record?
**A.** Its IC50 is > 10 µM (inactive).

**Q.** `C#Cc1cc(C2=NNC(=O)C[C@H]2C)ccc1NC(C)=O` was tested. Which IC50 did it give?
**A.** Its IC50 is > 10 µM (inactive).

**Q.** With `C[C@@H]1CC(=O)NN=C1c1ccc(N)c([N+](=O)[O-])c1` as the molecule, how does the IC50 read?
**A.** The IC50 was > 10 µM (inactive).

**Q.** For `C[C@@H]1CC(=O)NN=C1c1ccc(I)cc1`, which IC50 is on record?
**A.** The IC50 was > 10 µM (inactive).

**Q.** For `C[C@@H]1CC(=O)NN=C1c1ccc(N2CCOCC2)cc1`, which IC50 is on record?
**A.** Its IC50 is > 10 µM (inactive).

**Q.** For `CC(=O)Nc1ccc(-c2n[nH]c(=O)cc2C)cc1`, which IC50 is on record?
**A.** Its IC50 is > 10 µM (inactive).

**Q.** How did the IC50 turn out when `CCN(CC)c1ccc(-c2nc(C(C)C)no2)cc1[N+](=O)[O-]` was run?
**A.** The IC50 was > 10 µM (inactive).

**Q.** How did the IC50 turn out when `CCN(CC)c1ccc(C2=NNC(=O)CC2C)cc1` (stereo not drawn) was run?
**A.** Its IC50 is > 10 µM (inactive).

**Q.** For `CC1(C)C(=O)NN=C1c1ccc(N2CCOCC2)cc1`, which IC50 is on record?
**A.** The IC50 was > 10 µM (inactive).

**Q.** Which IC50 does the source give for `CC1C(=O)NN=C1c1ccc([N+](=O)[O-])cc1` (stereo not drawn) here?
**A.** The IC50 was > 10 µM (inactive).

**Q.** `CC(=O)Nc1ccc(C2=NNC(=O)CC2C)cc1` (stereo not drawn) was tested. Which IC50 did it give?
**A.** The IC50 was > 10 µM (inactive).

**Q.** With `CCN(CC)c1ccc(C2=NNC(=O)C[C@H]2C)cc1` as the molecule, how does the IC50 read?
**A.** The IC50 was > 10 µM (inactive).

**Q.** `C[C@@H]1CC(=O)NN=C1c1ccc([Si](C)(C)C)cc1` was tested. Which IC50 did it give?
**A.** The IC50 was > 10 µM (inactive).

**Q.** How did the IC50 turn out when `Cc1ccc(CCC(=O)N2CCN(c3ccc(C4=NNC(=O)CC4C)cc3)CC2)cc1` (stereo not drawn) was run?
**A.** The IC50 was > 10 µM (inactive).

**Q.** How did the IC50 turn out when `CC1CC(=O)NN=C1c1ccc(N2CCOCC2)c(F)c1` (stereo not drawn) was run?
**A.** The IC50 was > 10 µM (inactive).

**Q.** With `C[C@@H]1CC(=O)NN=C1c1ccc(C2CCCCC2)cc1` as the molecule, how does the IC50 read?
**A.** Its IC50 is > 10 µM (inactive).

**Q.** `O=C1C[C@H]2CCc3cc(N4CCOCC4)ccc3C2=NN1` (racemic) was tested. Which IC50 did it give?
**A.** Its IC50 is > 10 µM (inactive).

**Q.** Which IC50 does the source give for `C[C@@H]1CC(=O)NN=C1c1ccc(N2CCCCC2=O)cc1` here?
**A.** The IC50 was > 10 µM (inactive).

**Q.** How did the IC50 turn out when `CC(=O)Nc1ccc(C2=NNC(=O)C[C@H]2C)cc1[N+](=O)[O-]` was run?
**A.** The IC50 was > 10 µM (inactive).

**Q.** `CC1(C)C(=O)NN=C1c1ccc(Cl)cc1` was tested. Which IC50 did it give?
**A.** The IC50 was > 10 µM (inactive).

**Q.** For `C[C@@H]1CC(=O)NN=C1c1ccc(C2=CCCCC2)cc1`, which IC50 is on record?
**A.** Its IC50 is > 10 µM (inactive).

**Q.** How did the IC50 turn out when `C[C@@H]1CC(=O)NN=C1c1ccc(N2CCN(C)CC2)cc1` was run?
**A.** The IC50 was > 10 µM (inactive).

**Q.** Which IC50 does the source give for `CCN(CC)c1ccc(C2=NNC(=O)CC2C)cc1[N+](=O)[O-]` (stereo not drawn) here?
**A.** The IC50 was > 10 µM (inactive).

**Q.** `C[C@@H]1CC(=O)NN=C1c1ccc(N2CCCOC2=O)cc1` was tested. Which IC50 did it give?
**A.** Its IC50 is > 10 µM (inactive).

**Q.** For `C[C@@H]1CC(=O)NN=C1c1ccccc1`, which IC50 is on record?
**A.** Its IC50 is > 10 µM (inactive).

**Q.** With `CC(=O)Nc1ccc(C2=NNC(=O)C[C@H]2C)cc1` as the molecule, how does the IC50 read?
**A.** Its IC50 is > 10 µM (inactive).

**Q.** With `O=C1CC(c2ccccc2)=NN1` as the molecule, how does the IC50 read?
**A.** Its IC50 is > 10 µM (inactive).

**Q.** With `CCN(CC)c1ccc(C2=NNC(=O)CC2C)cc1N` (stereo not drawn) as the molecule, how does the IC50 read?
**A.** The IC50 was > 10 µM (inactive).

**Q.** `CCN(CC)c1ccc(C2=NNC(=O)C[C@H]2C)cc1[N+](=O)[O-]` was tested. Which IC50 did it give?
**A.** Its IC50 is > 10 µM (inactive).

**Q.** `C[C@@H]1CC(=O)NN=C1c1ccc(N2CCOCC2)c(F)c1` was tested. Which IC50 did it give?
**A.** The IC50 was > 10 µM (inactive).

**Q.** How did the IC50 turn out when `CC1(C)C(=O)NN=C1c1ccc(N)cc1` was run?
**A.** Its IC50 is > 10 µM (inactive).
